Data taken from paper PMC6222706, “Evaluation of the Antioxidant and Neuroprotectant Activities of New Asymmetrical 1,3-Diketones” (Molecules : A Journal of Synthetic Chemistry and Natural …, 2018).

Legend:
[1] = tested on: SH-SY5Y cells; assay: LDH release assay in H2O2-treated SH-SY5Y cells; format: cell-based, human; settings: compound 5-50 µM for 24 h, then 200 µM H2O2 for 24 h
Protocol: Additionally, the protection effect of 6b and 7b on cell death induced by 200 µM H2O2 was determined by measuring the lactate dehydrogenase (LDH) release in cell culture medium.
SH-SY5Y 96-well plates at a density of 5 × 10^3 cells/well and grown in the incubator for 24 h. Cells were pretreated for 24 h with different compound concentrations (5, 10, 20, 30, 40, 50 µM) and then exposed to 200 µM H2O2 for 24 h. Then, the supernatant was used in the LDH assay and the absorbance measured at 490nm in a Varioskan microplate reader after 30 min, according to the manufacturer’s instructions (LDH Cytotoxicity Assay Kit, Pierce^TM, Thermo Fisher Scientific, Vantaa, Finland). LDH leakage was calculated as the percentage of the control group.

[2] = FRAP (Ferric Reducing Antioxidant Power) assay; format: biochemical; settings: for FRAP-TEAC100: Trolox Equivalent Antioxidant Capacity vs 100 µM solution of the substance, from FRAP assay; for FRAP Assay (%) at 100 µM / FRAP Assay (%) at 200 µM: 30 min, 593 nm
Protocol: The assay was carried out according to the method of Benzie et al. with slight modifications, in a 96-well microplate. FRAP reagent was prepared by mixing 10 mL of 300 mM acetate buffer with 1 mL of 10 mM 2,4,6-tripyridyl-S-triazine (TPTZ) in HCl 40 mM and 1mL of FeCl3·6H2O 20 mM. Firstly, 190 µL of the FRAP reagent were added to all wells of the 96-well plate, followed by the addition to the well of 10 µL of the test compounds dissolved in Ethanol to reach the final concentrations assayed (0, 5, 10, 20, 50, 100, 150, 200 µM). After 30 min incubation in the dark, the absorbance was read at 593 nm. Trolox was used as assay control. Three different assays were carried out by quadruplicate for each compound.

[3] = tested on: SH-SY5Y cells; assay: Mitochondrial membrane potential (JC-1, microplate reader) in SH-SY5Y cells under H2O2; format: cell-based, human; settings: SH-SY5Y, compound at different concentrations for 24 h, then 200 µM H2O2 for 24 h, JC-1
Protocol: To know whether β-diketones 6b and 7b will protect the mitochondrial membrane from depolarization under oxidative stress conditions, MMP experiments were carried out with the cationic dye JC-1 (5,5′,6,6′-tetrachloro-1,1′,3,3′-tetraethylbenzimi-dazolylcarbocyanine iodide). JC-1 enters selectively into mitochondria and reversibly change color from red to green as the membrane potential decrease. In healthy cells, JC-1 forms red fluorescent J-aggregates while in apoptotic cells with low MMP, JC-1 remains as monomers with green fluorescence. The ratio of J-aggregates to J-monomers is an indication of healthy non-apoptotic cells.
The fluorescent dye 5,5′,6,6′-tetrachloro-1,1′,3,3′-tetraethylbenzimidazolylcarbocyanine iodide (JC-1) was used for measuring MMP [111]. A decrease in fluorescence intensity represents mitochondrial membrane depolarization. For fluorescence ratio detection under oxidative stress conditions, 96 well plates were seeded with 3 × 10^3 SH-SY5Y cells and after 24 h incubation they were treated with test compound and left out for 24 h. Then, cells were exposed to different H2O2 concentrations for 24 h. After the incubation period, cells were washed twice with Hanks buffer and then stained with 5 µM JC-1 in culture media in dark, in a CO2 incubator at 37 °C for 20 min. At the end of the dye incubation period, cells were washed three times with Hanks buffer and 200 µL of fresh buffer was added. Cells were analyzed with a Varioskan microplate reader. J-aggregates red fluorescence intensity was measured at 535 nm excitation and 595 nm emission wavelength, while excitation at 485 nm and emission 535 nm wavelength was used for J-monomers green fluorescence. Results were expressed as the ratio of fluorescence intensity of J-aggregates to J-monomers. […] JC-1 aggregates show red fluorescence (peak emission at 590 nm) measured in the FL2 channel. Thus, healthy non-apoptotic cells are detected in both FL1 and FL2 channels, while cells with disrupted mitochondrial function show fluorescence in FL1 channel but reduced FL2 intensity.

[4] = tested on: SH-SY5Y cells; assay: SH-SY5Y neuroprotection assay against H2O2 (MTT); format: cell-based, human; settings: compound 5-50 µM for 24 h, then 200 µM H2O2 for 24 h
Protocol: For neuroprotection experiments, SH-SY5Y cells were treated with test compound at different concentrations (5, 10, 20, 30, 40, and 50 µM) for 24 h. After the incubation period, cells were exposed to H2O2 200 µM for 24 h. At the end of the treatment, cell viability was measure with MTT.
Compound neuroprotection under H2O2-induced oxidative stress was assessed by MTT assay. Briefly, SH-SY5Y were seeded into 96-well plates at a density of 3 × 10^3 cells/well and grown in the incubator for 24 h. Cells were pretreated for 24 h with different compound concentrations (5, 10, 20, 30, 40, 50 µM). After the treatment period, cells were exposed to 200 µM H2O2 for 24 h. Cell viability was measured with MTT following the same procedure described above. Cell viability was expressed as the percentage of the control value (cells without treatment with H2O2).

[5] = tested on: SH-SY5Y cells; assay: Intracellular ROS levels (DCFH2-DA) in SH-SY5Y cells under H2O2; format: cell-based, human
Protocol: Oxidative stress increases ROS levels, which may cause cell damage and death. Therefore, ROS production caused by H2O2 was evaluated in cells pretreated with or without derivatives 6b and 7b. In these studies, DFCH-DA method was used to measure by fluorescence the ROS intracellular levels, under two different compound treatment regimens. […] From both experiments, it could be concluded that 6b and 7b reduce intracellular ROS, and that longer treatment period seems to be needed to achieve a better ROS reduction.
Intracellular ROS levels were determined using dichlorofluorescein diacetate (DCFH2-DA) according to Wang et al.. DCFH2-DA is cleaved by intracellular esterases and oxidized by ROS to form the fluorescent compound DCF, which measure represents the ROS level. So, 3 × 10^3 SH-SY5Y cells were seeded in 96 well plates and after 24 h, treated with the test compound for an additional 24 h. […] After the incubation period, cells were washed twice with Hanks buffer and loaded with 20 µM DCFH2-DA (in FBS-free culture medium) for 40 min in dark at 37 °C in a CO2 incubator. At the end of the dye incubation period, they were washed twice with Hanks buffer to remove the extracellular DCFH2-DA. Fluorescence was measured with a Varioskan microplate reader at 485 nm excitation and 535 nm emission wavelength. Results are expressed as the percentage of fluorescent increase compared with that of the control. All the experiments were performed at least three times by quadruplicate for each compound concentration.

[6] = 6 h compound treatment followed by 2 h 500 µM H2O2
[7] = 24 h compound treatment prior to 400 µM H2O2 for 4 h

Row | SMILES | LDH leakage [1] | FRAP-TEAC100 [2] | FRAP Assay (%) at 100 µM [2] [%] | FRAP Assay (%) at 200 µM [2] [%] | MMP recovery [3] | Cell viability after H2O2 (neuroprotection) [4] | Intracellular ROS level [5, 6] | Intracellular ROS level [5, 7]
1 | O=C(/C=C(O)/C=C/c1cc(F)c(O)cc1F)C(F)(F)F [Compound 6b, (3Z,5E)-6-(2,5-difluoro-4-hydroxyphenyl)-1,1,1-trifluoro-4-hydroxyhexa-3,5-dien-2-one] | reduced the LDH leakage | 0.15 | 6.7 | 11.3 | 18–25% | significantly improved | significant ROS level decrease | significant ROS level reduction
2 | O=C(/C=C(O)/C=C/c1ccc(O)c(F)c1F)C(F)(F)F [Compound 7b, (3Z,5E)-6-(2,3-Difluoro-4-hydroxyphenyl)-1,1,1-trifluoro-4-hydroxyhexa-3,5-dien-2-one] | reduced the LDH leakage | 0.16 | 8.8 | 15.3 | 18–25% | significantly improved | significant ROS level decrease | significant ROS level reduction
